Experiments:
[1] = tested on: secretion levels of IL-6 in PBMC cells; assay: Inhibition of LPS+IL-1β-induced IL-6 secretion in PBMC (IL-6 ELISA); type: cell-based; details: human PBMC, 24 h compound pre-incubation, 20 h stimulation
[2] = Pharmacokinetic experiment on mice (iv and ig); type: in vivo; details: mouse, plasma, BALB/c Mice; for bioavailability: ig 5.00 mg/kg vs iv 1.00 mg/kg, read-out: Oral bioavailability Fobs (%); for Cmax: read-out: Peak plasma concentration Cmax
[3] = tested on: IMQ-induced psoriasis model; assay: IMQ-induced psoriasis model, skin thickening and ear thickening; type: in vivo, BALB/c mice; details: BID, gavage; for IMQ-induced psoriatic ear thickening, P compared with the Model group: FIG. 2
Experimental: Male BALB/c mice aged 6-8 weeks were randomly grouped into 15 groups or 6 groups after 1 week of adaptive feeding: control group, imiquimod model group (i.e., Model group), clobetasol propionate group (i.e., CLO group), the compounds of the present invention: TM-57 ICL-004192 (3 mg/kg, 10 mg/kg, 30 mg/kg), TM-109ICL-004240 (3 mg/kg, 10 mg/kg, 30 mg/kg, 60 mg/kg), TM-101ICL-004250 (3 mg/kg, 10 mg/kg, 30 mg/kg, 60 mg/kg), with 5 mice per group, and the Control group, the imiquimod model group (i.e., the Model group), and the clobetasol propionate group (i.e., the CLO group). On day 0, each of the mice was unhaired on the back using a hair removal cream, with a hair removal area of 2.5 cm×1.5 cm. On the first day, IMQ cream was used for modeling, and a corresponding drug was administered by gavage for treatment. The compounds of the present invention were administered by gavage at corresponding doses twice daily in the morning and evening with an interval of 8 h between two administrations. 2 h after the first gavage on a same day, the IMQ cream was applied to the to-be-unhaired site on the back and the left ear of each of the mice, with doses of the IMQ cream administered to the to-be-unhaired site on the back and the left ear being 62.5 mg and 7.5 mg, respectively. 5 h after the IMQ cream was applied to the to-be-unhaired area on the back and the left ear of each of the mice in the CLO group, clobetasol propionate cream was applied once daily. The blank group and the IMQ group were administrated with a vehicle twice daily in the morning and evening with an interval of 8 h between two administrations. […]
Referring to the Psoriasis Area and Severity Index (PASI) scoring criteria, the psoriasis, erythema, and thickness of skin lesions on the back were scored from 0 to 4 every morning from day 1 of modeling, with the scoring criteria as shown in Table 1. […] The ear thickness of the left ear of the mouse was measured using a digital vernier caliper three times every morning from day 1, to obtain a mean value.

[4] = Pharmacokinetic experiment on SD rats (iv and ig); type: in vivo; details: Sprague-Dawley, rat, plasma; for Cmax: read-out: Peak plasma concentration Cmax; for bioavailability: ig 5.00 mg/kg vs iv 1.00 mg/kg, read-out: Oral bioavailability Fobs (%)
Experimental: Pharmacokinetic experiment on SD rats: in this experiment, two administration modes: oral intragastric administration and tail vein injection were selected. Each of the compounds of the present patented invention was administered at an oral dose of 5 mg/kg at an administration volume of 10 mL/kg. […] Appropriate amounts of Solutol and H2O were proportionally added sequentially, and fully mixed ultrasonically by vortexing, to prepare a clear drug solution at 0.5 mg/mL. ICL004-protodrug was administered by intravenous injection at a dose of 1 mg/kg at an administration volume of 10 mL/kg. Right before use, an appropriate amount of the drug was accurately weighed, to prepare a final volume of 20% PEG 400 and 80% Saline. Appropriate amounts of PEG 400 and Saline were proportionally added sequentially, and fully mixed ultrasonically by vortexing, to prepare a clear drug solution at 0.1 mg/mL.
6 SD rats, each with body weight of 180-220 g, were randomly grouped into 2 groups. After fasting but with free access to water overnight, each […] in the first group was administered by gavage. 200 μL of blood was sampled from its eye socket into an anticoagulant tube respectively at each time point of 15 min, 30 min, 1 h, 2 h, 4 h, 6 h, 8 h, and 24 h after administration. Within one h, each of the blood samples was centrifuged at 10,000 rpm at 4° C. for 20 min (the sample was stored on an ice box prior to the centrifugation), and the supernatant (i.e., the plasma) was stored in a refrigerator at −20° C. for LC-MS/MS analysis. 200 μL of blood was sampled from the eye socket of each […] in the second group into an anticoagulant tube respectively at each time point of 5 min, 15 min, 30 min, 1 h, 2 h, 4 h, 8 h, and 24 h after administration by intravenous injection. Within one h, each of the blood samples was centrifuged at 10,000 rpm at 4° C. for 20 min (the blood sample was stored on an ice box prior to the centrifugation), and the supernatant, i.e., the plasma, was stored in a refrigerator at −20° C. for LC-MS/MS analysis.

Cc1nn(C2CCC(=O)NC2=O)c2cccc(N3CC4CN(C[C@H]5CC[C@H](n6cc7cc(NC(=O)c8cnn9cccnc89)c(N8CCOCC8)cc7n6)CC5)CC4C3)c12 (stereo partly drawn) [TM-57]
IC50 [1]: 8.67 nM | bioavailability ([2]; po): 48.4% | AUC ([2]; po, ig, 5.00 mg/kg): 1770 ng·h/mL | AUC(0-inf) ([2]; po, ig, 5.00 mg/kg): 1920 ng·h/mL | Cmax ([2]; po, ig, 5.00 mg/kg): 342 ng/mL | AUC ([2]; iv, 1.00 mg/kg): 790 ng·h/mL | AUC(0-inf) ([2]; iv, 1.00 mg/kg): 795 ng·h/mL | Cmax ([2]; iv, 1.00 mg/kg): 276 ng/mL | IMQ-induced psoriatic skin thickening, P compared with the Model group ([3]; 30 mg/kg, FIG. 1): < 0.01 | IMQ-induced psoriatic ear thickening, P compared with the Model group ([3]; 30 mg/kg): < 0.0001 | AUC ([4]; iv, 1.00 mg/kg): 499 ng·h/mL | AUC(0-inf) ([4]; iv, 1.00 mg/kg): 526 ng·h/mL | Cmax ([4]; iv, 1.00 mg/kg): 225 ng/mL | bioavailability ([4]; po): 46.6% | AUC ([4]; po, ig, 5.00 mg/kg): 580 ng·h/mL | AUC(0-inf) ([4]; po, ig, 5.00 mg/kg): 1230 ng·h/mL | Cmax ([4]; po, ig, 5.00 mg/kg): 79.7 ng/mL

Cc1nn(C2CCC(=O)NC2=O)c2cncc(N3CCN(C[C@H]4CC[C@H](n5cc6cc(NC(=O)c7cnn8cccnc78)c(N7CCO[C@H](C)C7)cc6n5)CC4)CC3)c12 (stereo partly drawn) [TM-109]
IC50 [1]: 39.2 nM | bioavailability ([2]; po): 63% | AUC ([2]; po, ig, 5.00 mg/kg): 10100 ng·h/mL | AUC(0-inf) ([2]; po, ig, 5.00 mg/kg): 10100 ng·h/mL | Cmax ([2]; po, ig, 5.00 mg/kg): 1300 ng/mL | AUC ([2]; iv, 1.00 mg/kg): 3220 ng·h/mL | AUC(0-inf) ([2]; iv, 1.00 mg/kg): 3220 ng·h/mL | Cmax ([2]; iv, 1.00 mg/kg): 605 ng/mL | IMQ-induced psoriatic ear thickening, P compared with the Model group ([3]; 60 mg/kg): < 0.01 | AUC ([4]; iv, 1.00 mg/kg): 537 ng·h/mL | AUC(0-inf) ([4]; iv, 1.00 mg/kg): 776 ng·h/mL | Cmax ([4]; iv, 1.00 mg/kg): 101 ng/mL | bioavailability ([4]; po): 7.87% | AUC ([4]; po, ig, 5.00 mg/kg): 268 ng·h/mL | AUC(0-inf) ([4]; po, ig, 5.00 mg/kg): 306 ng·h/mL | Cmax ([4]; po, ig, 5.00 mg/kg): 23 ng/mL

Source: patent US20260146044A1, “AROMATIC COMPOUND, PHARMACEUTICAL COMPOSITION CONTAINING SAME, AND USE THEREOF” (Increland, priority 2023, published 2026)
